Measured values: PubChem BioAssay AID1221 (NMMLSC, 2008)
Activity calls are given as the source filed them.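 Rule for the calls: active = summed score of at least 50 from binding left at 10 µM, EC50 band and curve drop size; inactive = the rest.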

Target: Estrogen receptor beta (Homo sapiens) (UniProt Q92731)
Assay: competitive ligand binding to estrogen receptor beta – cell-based, Cos7 ERbeta-GFP, E2-Alexa633, flow cytometry, dose response (AID 1221)
Settings: for percent ligand binding remaining: at 10 µM (top of the series)

Sequence of Estrogen receptor beta (Homo sapiens) (Q92731 whole entry, looked up): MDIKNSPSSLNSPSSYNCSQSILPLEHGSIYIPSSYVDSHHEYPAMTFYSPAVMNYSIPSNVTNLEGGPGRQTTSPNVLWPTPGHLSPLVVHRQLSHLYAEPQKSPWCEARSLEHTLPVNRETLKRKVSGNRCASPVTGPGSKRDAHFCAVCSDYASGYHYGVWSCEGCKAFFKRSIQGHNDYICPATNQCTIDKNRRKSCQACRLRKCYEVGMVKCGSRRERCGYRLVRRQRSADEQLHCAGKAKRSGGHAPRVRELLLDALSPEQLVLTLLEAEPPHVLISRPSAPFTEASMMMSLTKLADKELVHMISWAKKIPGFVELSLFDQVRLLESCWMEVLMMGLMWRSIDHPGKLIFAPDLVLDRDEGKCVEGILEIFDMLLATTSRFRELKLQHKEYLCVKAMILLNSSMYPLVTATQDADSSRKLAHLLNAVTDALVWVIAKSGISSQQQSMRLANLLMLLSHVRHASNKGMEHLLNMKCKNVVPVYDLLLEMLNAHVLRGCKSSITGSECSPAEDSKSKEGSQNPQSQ

Structure (SMILES) | percent ligand binding remaining | EC50
Cc1cc(C(=O)Nc2sc3c(c2C#N)CCC3)no1 | inactive | –
O=S(=O)(NCCc1csc(-c2cccnc2)n1)c1ccc(Cl)s1 | inactive | –
Cc1cc([N+](=O)[O-])c2c(c1C)C1C=CCC1C(c1ccccn1)N2 (stereo not drawn) | inactive | –
Cc1ccc(-n2c(=O)c(C#N)cc3c(=O)n4cccc(C)c4nc32)cc1 | inactive | –
COc1nc(-c2ccc(Cl)cc2)ccc1-c1noc(-c2ccco2)n1 | inactive | –
COc1ccc(C(=O)N/N=C(\C)c2ccc3c(c2)C2C=CCC2C(c2ccccc2)N3)cc1 (stereo not drawn) | 32.7% | –
Brc1cc2c(cc1C1Nc3ccccc3C3C=CCC31)OCO2 (stereo not drawn) | inactive | –
Cn1ccnc1SCC(=O)Nc1ccc2nc(SCC(=O)NC3CC3)sc2c1 | inactive | –
CCCCCCNC(=O)c1cc(-c2ccco2)nc2ccccc12 | inactive | –
CC(=O)c1ccc2c(c1)C1C=CCC1C(c1ccc(S(=O)(=O)N3CCOCC3)cc1)N2 (stereo not drawn) | inactive | –
O=C1/C(=C\c2ccco2)SC(=S)N1c1ccc(O)cc1 | inactive | –
Oc1ccc(-c2nc(-c3ccc(O)c(O)c3)cs2)cc1 | inactive | –
Cc1nnc(SCC(=O)NC(=O)NCc2ccco2)n1Cc1ccccc1 | inactive | –
O=C1NC(c2ccc(Br)cc2)Nc2sc3c(c21)CCC3 (stereo not drawn) | inactive | –
CCC(=O)Oc1ccc(/C(CC)=C(\CC)c2ccc(OC(=O)CC)cc2)cc1 | 32.1% | –
COc1cccc(NS(=O)(=O)c2ccc3c(c2)C2C=CCC2C(c2ccc(C(=O)O)cc2)N3)c1 (stereo not drawn) | inactive | –
C[C@]12CC[C@@H]3c4ccc(O)cc4[C@@H](O)C[C@H]3[C@@H]1CC[C@@H]2O | inactive | –

Structure (SMILES) | percent ligand binding remaining | EC50
CC(=O)Nc1ccc(OC(=O)CC2SC(=O)NC2=O)cc1 (stereo not drawn) | inactive | –
C/C=C(/C(=C/C)c1ccc(O)cc1)c1ccc(O)cc1 | 45.1% | –
Cc1cc(C)c2c(c1)NC(c1cc3c(cc1Br)OCO3)C1CC=CC21 (stereo not drawn) | inactive | –
CCNC(=O)c1ccc2c(c1)C1C3CCC(C3)C1C(c1ccccc1)N2 (stereo not drawn) | inactive | –
O=C(O)c1ccc2c(c1)C1C(Cl)C(Sc3ccccc3[N+](=O)[O-])CC1C(c1cccc([N+](=O)[O-])c1)N2 (stereo not drawn) | inactive | –
COc1ccc(/C=N/NC(=O)c2nc(-c3ccccc3)cc(-c3ccccc3)n2)cc1O | inactive | –
CCn1c(=NC(=O)c2ccc(N3C(=O)CCC3=O)cc2)sc2c(OC)ccc(OC)c21 | inactive | –
O=C(Cc1cccs1)Nc1ccc(S(=O)(=O)Nc2ncccn2)cc1 | inactive | –
Cc1nn(-c2ccccc2)c(/N=C/c2ccc(O)cc2)c1-c1ccccc1 | inactive | –
C[C@H]1CCC[C@@H](O)CCC/C=C/c2cc(O)cc(O)c2C(=O)O1 | inactive | –
N=C1C(c2nc3ccccc3[nH]2)=C(O)CN1c1ccc(CC(=O)O)cc1 | inactive | –
Oc1ccc(-c2nc3ccc4ccccc4c3c3c2CCC3)cc1O | – | > 10 µM (inactive)
COc1ccc(NC(=O)C(c2ccccc2)N(C)C(=O)c2ccc(=O)[nH]c2)cc1 (stereo not drawn) | inactive | –
COc1cccc(C2Nc3c(F)cc(Br)cc3C3C=CCC32)c1OC (stereo not drawn) | inactive | –
CCc1nc2sc3ccccc3c(=O)c2c(=O)n1Cc1ccco1 | inactive | –
Cc1cc(C)cc(OCC(=O)Nc2ccc(N3CCCC3)cc2)c1 | inactive | –
